# Data as given in article PMC11222350, “Preclinical evaluation of [^18F]FP-CIT, the radiotracer targeting dopamine transporter for diagnosing Parkinson’s disease: pharmacokinetic and efficacy analysis” (EJNMMI Research, 2024).
# Like-named read-outs stand apart in the source and are kept apart here.
# How the values were obtained:
# [1] = Metabolites of cold authentic FP-CIT in normal rats (LC-MS); type: in vivo, Sprague–Dawley rats; conditions: FP-CIT 5 mg/kg i.v.; for presence in brain samples: 30 and 60 min
# Experimental: Male Sprague–Dawley Rats (group III) were anesthetized with 2% isoflurane in oxygen, and cold authentic FP-CIT dissolved in 10% DMSO normal saline diluent was intravenously injected via the tail vein (5 mg/kg; 5 mg/mL). Rats were sacrificed at different time points (30 and 60 min after injection, n = 3 each), and the tissues of interest (i.e., blood, urine, brain, and liver) were harvested. One rat injected with 10% DMSO in normal saline was used as the negative control. Plasma obtained from the blood samples was centrifuged at 3000 rpm for 10 min at room temperature. Urine samples were collected from the urinary bladder using a 1 mL syringe at specific time points. After adding ice-cold acetonitrile at a volume of onefold (v/v) for each plasma and urine sample obtained, the samples were centrifuged at 12,000 rpm for 5 min at 4 °C and the supernatant was collected. The brain and liver tissues were separately homogenized in 1 mL of a 0.9% normal saline/acetonitrile (95:5 v/v) solution using a homogenizer. The obtained homogenate was deproteinized using 500 μL of acetonitrile and centrifuged (4 °C, 12,000 rpm, 10 min), followed by collecting the supernatant. The supernatants obtained by centrifuging the blood, brain, liver, and urine samples were filtered with 2 mL of acetonitrile using a 0.45 μm UHP syringe filter to remove residues. Compounds identified as FP-CIT metabolites in a previous study were modified to a cold-fluorine-authentic form and used as positive controls. The filtered samples were analyzed qualitatively and quantitatively based on the positive controls.
# The ISQEM LC–MS system (Thermo Fisher, Waltham, MA, USA) equipped with OptimaPak C18 (5 μm, 4.6 × 250 mm) column was used. The HPLCf elution condition (A: 0.1% (v/v) trifluoroacetic acid, B: acetonitrile) was as follows: a gradient elution; 90% (A), 10% (B) (0 min) → 40% (A), 60% (B) (35 min); and a flow rate of 1 mL/min. The injection volume of each sample was 20 μL. Electrospray ionization mass was scanned in both the positive and negative modes. Mass range (amu) was 100–2000; dwell times, 0.1 s; source voltage, 3000 V (positive) and − 2000 V (negative); and vaporizer temperature, 550 °C; nitrogen was used as nebulizing gas. For analysis, the masses of [M + H]^+ of cold authentic FP-CIT administrated and metabolites were extracted from the obtained total ion chromatogram, and Gaussian distribution curve fitting was conducted.
# [2] = cited from earlier work
# [3] = system: dopamine transporter; design: method as in PMID 30028339, PMID 23758882, PMID 15908232; conditions: cited from earlier work
# [4] = system: serotonin transporter; conditions: cited from earlier work
# [5] = system: dopamine transporter; conditions: PET scanning; cited from earlier work
# [6] = design: method as in earlier work; conditions: cited from earlier work
structure (smiles),measurement,setting,value
O=C(O)C1C2CCC(CC1c1ccc(I)cc1)N2 (stereo not drawn) [nor-β-CIT-acid],presence in brain samples,[1],Neither FP-CIT-acid nor nor-β-CIT-acid was observed in the brain samples
same,metabolite distribution,[1]; 60 min post-injection,"appeared in the blood, urine, and liver samples"
same,blood–brain barrier penetration,[2]; low-lipophilic metabolite of [^123I]FP-CIT,difficulty penetrating the BBB
COC(=O)[C@H]1C(c2ccc([123I])cc2)C[C@@H]2CC[C@H]1N2C (stereo partly drawn) [[^123I]β-CIT],correlation (R) with TH IHC,[3],0.911
same,correlation (R) with dopamine transporter IHC,[3],0.936
O=C(O)C1C(c2ccc(I)cc2)CC2CCC1N2CCCF (centres unmarked) [FP-CIT-acid],presence in brain samples,[1],Neither FP-CIT-acid nor nor-β-CIT-acid was observed in the brain samples
same,"metabolite distribution, urine",[1]; 30 min after administration,most distinctly observed in the urine samples
same,amount relative to other forms,[2],< 0.3%
same,blood–brain barrier penetration,[2],cannot penetrate the blood–brain barrier
"COC(=O)C1C(c2ccc(I)cc2)CC2CCC1N2CCCF (stereo not drawn) [FP-CIT, N-(3-fluoropropyl)-2β-carboxymethoxy-3β-(4-iodophenyl) nortropane]","metabolite distribution in blood, brain, liver, urine EIC",[1]; 30 min after administration,mainly observed in all the EIC of metabolic pathways
COC(=O)C1C2CCC(CC1c1ccc(I)cc1)N2 (stereo not drawn) [nor-β-CIT],affinity for serotonin transporter relative to FP-CIT,[4],higher affinity for serotonin transporter than FP-CIT
same,"metabolite distribution in blood, brain, liver, urine EIC",[1]; 30 min after administration,mainly observed in all the EIC of metabolic pathways
CN1[C@H]2CC[C@@H]1[C@@H](CN(CC[S-])CC[N-]CC[S-])[C@@H](c1ccc(Cl)cc1)C2.[O]=[99Tc+4] [[^99mTc]TRODAT-1],correlation (R) with TH IHC,[3],0.899
[11CH3]OC(=O)C1C(c2ccc(I)cc2)CC2CCC1N2CCCF (centres unmarked) [[^11C]FP-CIT],time of transient equilibrium in time activity curves (specific binding to the striatum),[5],70 to 90 min
COC(=O)[C@H]1[C@@H](c2ccc([123I])cc2)C[C@@H]2CC[C@H]1N2CCCF [[^123I]FP-CIT],correlation (R) with dopamine transporter IHC,[3],0.88
same,injected dose excreted,"[6]; till 6 h post-injection, male Wistar rats",approximately 10%
same,injected dose excreted,"[6]; until 72 h, animals",more than 80%
